Measured values as given in patent US6399570B1, “Antimicrobial/endotoxin neutralizing polypeptide” (priority 1999, dated 2002).

How the values were obtained:
S. abortus LPS = assay: Limulus ELISA, ENC50 against S. abortus LPS; assay type: biochemical, Salmonella abortus equi; conditions: endotoxin 200 EU/ml; mean +/− SD
Experimental: (§1) The peptide-mediated inhibition of endotoxin-induced Limulus amebocyte lysate (LAL) coagulation was measured with a sensitive LAL assay (Zhang et al., J. Clin. Microbiol. 32: 416-422 (1994)). Limulus ELISA is an endotoxin assay based on activation of the LAL coagulation by endotoxin and detection of the generated peptide-C immunoreactivity with an ELISA using a monoclonal antibody to the polypeptide. Endotoxin was defined to be neutralized when it lost its ability to activate the LAL enzymes. The 50% endotoxin-neutralizing concentration (ENC50) reflects the potency of an anti-endotoxin agent; a low ENC50 indicates high potency. Table 2 lists the determined ENC50 value of each anti-endotoxin agent against lipid A and four different types of LPS. The potency of each anti-endotoxin agent varied depending on the type of endotoxin. […] The only difference between the sequence of LF-33 and LF-27 is that LF-27 lacks the first six residues (GRRRRS) at the N-terminus of LF-33. Remarkably, this deletion led to dramatic loss of the endotoxin-neutralizing capacity of the polypeptide in this assay. Binding of serum proteins to endotoxin neutralizes the endotoxin activity in this assay by preventing endotoxin from activating LAL (Emancipator et al., Infect. Immun. 60: 596-601 (1992)).
(§2) LPS. […] LPS (purity >99%) from Neisseria meningitidis was prepared from the group B strain #6275 and its potency was 25 EU/ng. […] The potency of the above endotoxin was determined with the Limulus enzyme-linked immunosorbent assay (ELISA, 43) in comparison with US Pharmacopeia reference standard endotoxin EC-5.
(§3) Briefly, 25 μl endotoxin solution (200 EU/ml) was mixed with an equal volume of test materials in a series of two-fold dilution in 0.15 M NaCl in a sterile 96-well tissue culture plate (Nunc A/S, Roskilde, Denmark), and incubated at 37° C. for 1 h in a dry-air incubator. […] The endotoxin activity was then quantified with the use of Limulus ELISA (Zhang et al., J. Clin. Microbiol. 32: 416-422 (1994)). […] The high sensitivity of the assay allowed for very low levels of the endotoxin activity to be detected. […]

Lipid A = assay: Limulus ELISA, ENC50 against Lipid A; assay type: biochemical, E. coli K12
Experimental: as §1, §2, §3

E. coli 0111 [1] = assay: Galactosamine-sensitized, leukopenic mouse model of bacteremic lethality; assay type: in vivo, CF-1 mice; conditions: 100 μM, i.p., simultaneous with lethal E. coli dose; 10% in untreated animals
Experimental: The ultimate protective potential of the LF 6 kDa polypeptide in a host-defense against bacterial infection was determined by testing in an acute, galactosamine-sensitized, leukopenic mouse model system (Bucklin et al., J. Infect. Dis. 174: 1249-1254 (1996)). In this model, mice were made leukopenic to suppress their endogenous host defense systems and then sensitized to the effects of Gram-negative endotoxins by galactosamine treatment while injecting a lethal intraperitoneal dose of E. coli. […] This rescue from lethality dramatically illustrates the protective potential of the polypeptide in vivo and is likely due to its combined antimicrobial and anti-endotoxin properties.
Generation of galactosamine-sensitized, leukopenic mouse model system. CF-1 mice were rendered immunocompromised by cyclophosphamide treatment three days prior to galactosamine-sensitizing them to the lethal effects of injection with an LD90 dose of E. coli 0111 (Bucklin et al., J. Infect. Dis. 174: 1249-1254 (1996)). Under these conditions, circulating leukocytes were reduced by 85% and the LD90 was determined to be 5×10^3 CFU E. coli.

E. coli 0111 [2] = assay: Antimicrobial assay for LF polypeptides (CFU after 6 h); assay type: cell-based
Experimental: The antimicrobial activity of the catheptic polypeptide was measured against a clinical isolate, E. coli 0111. […] The 6 kDa catheptic fragment of LF is therefore at least as potent as twelve other natural antimicrobial polypeptides (H. G. Boman, J. Marsh, and J. A. Goode, Eds., Antimicrobial Peptides, (John Wiley & Sons Ltd., New York, N.Y., 1994)), and can function as a bactericidal agent. […] At 100 μM polypeptide, the number of viable bacteria was more than 1,000-fold greater in the cultures treated with the pepsinolytic versus cathepsinolytic fragment (FIG. 1). The basis for this difference in potency may be related to the additional, internal, pepsin cleavages which occur between the two disulfide bridges in the 6 kDa domain (Mann et al., J. Biol. Chem. 269: 23661-7 (1994); Bellamy et al., Biochim. Biophys. Acta 1121: 130-6 (1992)).
Antimicrobial assay for LF polypeptides. Cultures of E. coli 0111 (American Type Culture Collection #43887) were grown at 37° C. in 1% bactopeptone (BP) (Difco) in Dulbecco's phosphate buffered saline (dPBS) (Mediatech) with aeration by shaking (225 rpm). overnight cultures were diluted 8,000-fold in 2×concentrated BP/dPBS and mixed with an equal volume of sterile endotoxin-free distilled water containing serial dilutions of the polypeptide to be tested. The final assay volume was […] in a 12 mm×75 mm polypropylene tube (Falcon) with an ultimate dilution of the overnight cultures of 1:16,000 to yield an original inoculum of ˜1-2×10^4 CFU/ml. The final assay medium was physiological in ionic strength, 1% bactopeptone in 1×Dulbecco's phosphate buffered saline. Cultures were grown for 6 h at 37° C. with aeration as above and then cell density determined by measuring CFU/ml for each assay culture tube. Serial dilutions of each assay tube were plated on Luria Broth bactoagar and incubated for 24 h at 37° C. prior to counting colonies. All assays were done in triplicate and the standard deviation calculated for each concentration of inhibitor. Culture density at the beginning and end of the 6 h growth period was also determined from triplicate cultures lacking any polypeptide inhibitors. Untreated cultures typically grew to 1-2×10^8 CFU/ml in 6 h under these assay conditions.

CSCC[C@H](NC(=O)[C@H](CC(N)=O)NC(=O)[C@H](CCCNC(=N)N)NC(=O)[C@H](CCC(N)=O)NC(=O)[C@H](Cc1c[nH]c2ccccc12)NC(=O)[C@H](CCC(N)=O)NC(=O)[C@H](Cc1ccccc1)NC(=O)[C@H](CS)NC(=O)[C@H](CCCCN)NC(=O)[C@@H](NC(=O)[C@H](C)NC(=O)[C@H](CCC(=O)O)NC(=O)[C@@H]1CCCN1C(=O)[C@H](CCC(N)=O)NC(=O)[C@H](CO)NC(=O)[C@@H](NC(=O)[C@H](C)NC(=O)[C@H](CS)NC(=O)[C@H](Cc1c[nH]c2ccccc12)NC(=O)[C@H](CCC(N)=O)NC(=O)[C@@H](N)C(C)C)C(C)C)[C@@H](C)O)C(=O)N[C@@H](CCCNC(=N)N)C(=O)N[C@@H](CCCCN)C(=O)N[C@H](C(=O)N[C@@H](CCCNC(=N)N)C(=O)NCC(=O)N1CCC[C@H]1C(=O)O)C(C)C [LF-27]
ENC50 against S. abortus LPS (S. abortus LPS): no detectable activity | IC50 (S. abortus LPS): > 300000 nM | fold less potent than LF-33 at neutralizing lipid A (Lipid A): approximately 10 fold | IC50 (Lipid A; endotoxin 200 EU/ml, mean +/− SD): 630 nM

6 kDa polypeptide: 6 kDa fragment produced by cathepsin D digestion of human LF, amino acids 1-49 of SEQ ID NO: 2 (GRRRRSVQWCAVSQPEATKCFQWQRNMRKVRGPPVSCIKRDSPIQCIQA; listed as Homo sapiens)
survival rate of infected animals (E. coli 0111 [1]): 70% | reduction in cell growth (E. coli 0111 [2]; 100 μM polypeptide): greater than 10,000 fold | number of viable CFUs (E. coli 0111 [2]; 100 μM polypeptide, original inoculum 2.14×10^4 CFU/ml): 8.8×10^3 CFU/ml | minimum inhibitory concentration (MIC) (E. coli 0111 [2]; E. coli 0111, physiological ionic strength, 6 h, CFU): 1 to 5 µM | potency against bacteria relative to the fragment liberated by pepsin (E. coli 0111 [2]; from MICs): ~10 fold
